Read-outs that look alike come from different tables or passages of the source.
What was measured:
kochia (Bassia scoparia) = assay: Test A postemergence, kochia; type: in vivo; settings: Bassia scoparia, post-emergence, 240 h, Postemergence, 0 to 100 scale (0 no effect, 100 complete control); for pest or weed control at 125 g/ha: 125 g ai/ha; for pest or weed control at 500 g/ha: 500 g ai/ha
Method in brief: (§1)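 Preemergence: seeded pots of loam plus sand received a directed soil spray. Postemergence: seedlings at one to two leaves, 2 to 10 cm high, were oversprayed. Each compound was formulated in a non-phytotoxic solvent mix that included a surfactant.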

[1] = test system: barnyardgrass (Echinochloa crus-galli); assay: Test B flooded paddy test, barnyardgrass; settings: 336 h, read-out: Plant response rating, Barnyardgrass
[2] = test system: blackgrass (Alopecurus myosuroides); assay: Test A postemergence, blackgrass; type: in vivo; settings: Alopecurus myosuroides, post-emergence, 240 h, Postemergence, 0 to 100 scale (0 no effect, 100 complete control); for pest or weed control at 125 g/ha: 125 g ai/ha; for pest or weed control at 500 g/ha: 500 g ai/ha
Method in brief: as §1

[3] = test system: ragweed (common ragweed, Ambrosia artemisiifolia); assay: Test A preemergence, ragweed; type: in vivo; settings: Ambrosia artemisiifolia, pre-emergence, 240 h, Preemergence; for pest or weed control at 125 g/ha: 125 g ai/ha; for pest or weed control at 500 g/ha: 500 g ai/ha
Method in brief: as §1

[4] = test system: barnyardgrass (Echinochloa crus-galli); assay: Test A postemergence, barnyardgrass; type: in vivo; settings: Echinochloa crus-galli, post-emergence, 240 h, Postemergence, 0 to 100 scale (0 no effect, 100 complete control); for pest or weed control at 125 g/ha: 125 g ai/ha; for pest or weed control at 500 g/ha: 500 g ai/ha
Method in brief: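 After sowing into a sand-amended loam, pots for the preemergence test were treated by spraying directly onto soil. In parallel, seedlings at the one- to two-leaf stage and 2 to 10 cm tall were treated postemergence with the identical surfactant-containing formulation.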

[5] = visual injury approx. 10 days, read-out: Plant response rating, Kochia
[6] = visual injury vs untreated controls after approx. 10 days, read-out: Kochia plant response rating
[7] = visual injury approx. 10 days, read-out: Plant response rating, Blackgrass
[8] = visual injury vs untreated controls after approx. 10 days, read-out: Blackgrass plant response rating
[9] = visual injury on 0 to 100 scale (0 no effect, 100 complete control), approximately 10 days, read-out: Ragweed plant response rating
[10] = 0 to 100 scale (0 no effect, 100 complete control), read-out: Plant response rating, Ragweed
[11] = visual injury approx. 10 days, read-out: Plant response rating, Barnyardgrass
[12] = visual injury vs untreated controls after approx. 10 days, read-out: Barnyardgrass plant response rating
[13] = visual injury, approx. 10 days, read-out: Plant response rating, Kochia
[14] = visual injury, approx. 10 days, read-out: Plant response rating, Blackgrass
[15] = visual injury, approx. 10 days, read-out: Plant response rating, Barnyardgrass
[16] = read-out: Plant response rating, Kochia
[17] = read-out: Plant response rating, Blackgrass
[18] = visual injury, 0 to 100 scale (0 no effect, 100 complete control), approx. 10 days, read-out: Plant response rating, Ragweed
[19] = read-out: Plant response rating, Barnyardgrass

SMILES | pest or weed control at 125 g/ha (kochia (Bassia scoparia); [5]) | pest or weed control at 500 g/ha (kochia (Bassia scoparia); [6]) | pest or weed control at 250 g/ha [1] | pest or weed control at 125 g/ha [2, 7] | pest or weed control at 500 g/ha [2, 8] | pest or weed control at 125 g/ha [3, 9] | pest or weed control at 500 g/ha [3, 10] | pest or weed control at 125 g/ha [4, 11] | pest or weed control at 500 g/ha [4, 12] | pest or weed control at 500 g/ha (kochia (Bassia scoparia); [13]) | pest or weed control at 500 g/ha [2, 14] | pest or weed control at 500 g/ha [4, 15] | pest or weed control at 125 g/ha (kochia (Bassia scoparia); [16]) | pest or weed control at 125 g/ha [2, 17] | pest or weed control at 125 g/ha [3, 18] | pest or weed control at 500 g/ha [3, 9] | pest or weed control at 125 g/ha [4, 19]
Cc1cc(C)c(C2=NOC3CCOCC23)cc1NS(=O)(=O)C(F)(F)F (centres unmarked) [Compound 120, N-[2,4-Dimethyl-5-(3a,6,7,7a-tetrahydro-4H-pyrano[3,4-d]isoxazol-3-yl)phenyl]-1,1,1-trifluoromethanesulfonamide] | 70% | 90% | 0% | 20% | 70% | 90% | 100% | 90% | 90% | – | – | – | – | – | – | – | –
Cc1cc(C)c(C2=NO[C@@H]3CCC[C@H]23)cc1NS(=O)(=O)C(F)(F)F [Compound 103, N-[2,4-Dimethyl-5-[(3aR,6aR)-3a,5,6,6a-tetrahydro-4H-cyclopent[d]isoxazol-3-yl]phenyl]-1,1,1-trifluoromethanesulfonamide] | 70% | 80% | 85% | 0% | 30% | 70% | 90% | 90% | 90% | – | – | – | – | – | – | – | –
Cc1cc(C)c(N(COC(=O)C(C)(C)C)S(=O)(=O)C(F)(F)F)cc1C1=NO[C@@H]2CCC[C@H]12 [Compound 100, [[2,4-Dimethyl-5-[(3aR,6aR)-3a,5,6,6a-tetrahydro-4H-cyclopent[d]isoxazol-3-yl]phenyl][(trifluoromethyl)sulfonyl]amino]methyl 2,2-dimethylpropanoate] | 60% | 90% | 90% | 0% | 0% | 20% | 80% | 80% | 90% | – | – | – | – | – | – | – | –
Cc1cc(Cl)c(NS(=O)(=O)C(F)(F)F)cc1C(=O)N1CCOCC1 [Compound 16, N-[2-Chloro-4-methyl-5-(4-morpholinylcarbonyl)phenyl]-1,1,1-trifluoromethanesulfonamide] | 40% | – | 25% | 50% | – | 80% | 100% | 60% | – | 80% | 40% | 90% | – | – | – | – | –
Cc1cc(Cl)c(NS(=O)(=O)C(F)(F)F)cc1C(=O)N1CCC(F)(F)CC1 [Compound 229, N-[2-Chloro-5-[(4,4-difluoro-1-piperidinyl)carbonyl]-4-methylphenyl]-1,1,1-trifluoromethanesulfonamide] | – | 90% | 10% | – | 70% | – | – | – | – | – | – | – | 60% | 20% | 90% | 100% | –
Cc1cc(C)c(C2=NOC3(CCCC3)C2)cc1NS(=O)(=O)C(F)(F)F [Compound 207, N-[2,4-Dimethyl-5-(1-oxa-2-azaspiro[4.4]non-2-en-3-yl)phenyl]-1,1,1-trifluoromethanesulfonamide] | – | 60% | 75% | – | 60% | – | 70% | – | 80% | – | – | – | 20% | 20% | 20% | – | 60%
Cc1c(NS(=O)(=O)C(F)(F)F)cc(C(=O)N(C)C)c(C)c1F [Compound 128, 3-Fluoro-N,N,2,4-tetramethyl-5-[[(trifluoromethyl)sulfonyl]amino]benzamide] | 30% | 70% | 30% | 10% | 30% | 90% | 90% | 50% | 90% | – | – | – | – | – | – | – | –
Cc1cc(C)c(N(COC(=O)C(C)(C)C)S(=O)(=O)C(F)(F)F)cc1C1=NOC2(CCCC2)C1 [Compound 140, [[2,4-Dimethyl-5-(1-oxa-2-azaspiro[4.4]non-2-en-3-yl)phenyl][(trifluoromethyl)sulfonyl]amino]methyl 2,2-dimethylpropanoate] | 10% | 60% | 95% | 30% | 30% | 30% | 60% | 70% | 90% | – | – | – | – | – | – | – | –
CCc1cc(-c2cc(NS(=O)(=O)C(F)(F)F)c(C)cc2C)c(=O)n(C)n1 [Compound 34, N-[5-(6-Ethyl-2,3-dihydro-2-methyl-3-oxo-4-pyridazinyl)-2,4-dimethylphenyl]-1,1,1-trifluoromethanesulfonamide] | 30% | – | 0% | 0% | – | 0% | 20% | 0% | – | 50% | 0% | 0% | – | – | – | – | –
Cc1cc(C)c(C2=NOC3COCCC23)cc1NS(=O)(=O)C(F)(F)F (centres unmarked) [Compound 121, N-[2,4-Dimethyl-5-(3a,4,7,7a-tetrahydro-5H-pyrano[4,3-d]isoxazol-3-yl)phenyl]-1,1,1-trifluoromethanesulfonamide] | 50% | 80% | 40% | 40% | 80% | 80% | 100% | 90% | 90% | – | – | – | – | – | – | – | –
Cc1cc(Cl)c(NS(=O)(=O)C(F)(F)F)cc1C(=O)N1CCCCC1 [Compound 18, N-[2-Chloro-4-methyl-5-(1-piperidinylcarbonyl)phenyl]-1,1,1-trifluoromethanesulfonamide] | 10% | – | 0% | 0% | – | 0% | 30% | 0% | – | 40% | 0% | 70% | – | – | – | – | –
Cc1cc(C)c(C2=NOC3(CCCCC3)C2)cc1NS(=O)(=O)C(F)(F)F [Compound 197, N-[2,4-Dimethyl-5-(1-oxa-2-azaspiro[4.5]dec-2-en-3-yl)phenyl]-1,1,1-trifluoromethanesulfonamide] | – | 80% | 95% | – | 60% | – | 90% | – | – | – | – | – | 50% | 40% | 80% | – | –
Cc1c(NS(=O)(=O)C(F)(F)F)cc(C(=O)N2CCOCC2)c(C)c1F [Compound 190, 1,1,1-Trifluoro-N-[3-fluoro-2,4-dimethyl-5-(4-morpholinylcarbonyl)phenyl]methanesulfonamide] | – | 70% | 0% | – | 40% | – | 90% | – | 90% | – | – | – | 30% | 10% | 70% | – | 80%
Cc1cc(C)c(N(COC(=O)C(C)(C)C)S(=O)(=O)C(F)(F)F)cc1C1=NOC2(CCCCC2)C1 [Compound 159, [[2,4-Dimethyl-5-(1-oxa-2-azaspiro[4.5]dec-2-en-3-yl)phenyl][(trifluoromethyl)sulfonyl]amino]methyl 2,2-dimethylpropanoate] | – | 40% | 65% | – | 20% | 80% | 80% | – | 80% | – | – | – | 20% | 0% | – | – | 30%

From patent publication US20230278972A1, “SUBSTITUTED HALOALKYL SULFONANILIDE HERBICIDES” (FMC Corporation, priority 2020, published 2023)
